Laboratory results reported in PubChem BioAssay AID1259407 (Chemical Carcinogenesis Research Information System (CCRIS), 2018).
The source made the active and inactive calls. How the calls were made is not given here.

Test system: CCRIS mutagenicity, Ames/micronucleus/aberration tests
Assay: CCRIS mutagenicity studies

Row | SMILES | mutagenic call (End Point: In vitro chromosomal aberrations, Test System: Human peripheral lymphocytes, Metabolic Activation: None) | mutagenic call (End Point: In vitro micronucleus, Test System: Human peripheral lymphocytes, Metabolic Activation: None) | mutagenic call (End Point: In vivo micronucleus, Test System: Bone marrow polychromatic erythrocytes, Species: Mouse, Strain/Sex: CD-1/Female, Route: Gavage) | mutagenic call (End Point: In vivo micronucleus, Test System: Bone marrow polychromatic erythrocytes, Species: Mouse, Strain/Sex: CD-1/Male, Route: Gavage) | mutagenic call (Test System: Ames Salmonella typhimurium, Strain/Indicator: TA98, Metabolic Activation: None, Method: Preincubation) | mutagenic call (Test System: Ames Salmonella typhimurium, Strain/Indicator: TA98, Metabolic Activation: Rodent, Liver, S-9, Method: Preincubation) | mutagenic call (Test System: Ames Salmonella typhimurium, Strain/Indicator: TA100, Metabolic Activation: None, Method: Preincubation) | mutagenic call (Test System: Ames Salmonella typhimurium, Strain/Indicator: TA100, Metabolic Activation: Rodent, Liver, S-9, Method: Preincubation) | mutagenic call (Test System: Ames Salmonella typhimurium, Strain/Indicator: TA1535, Metabolic Activation: None, Method: Preincubation) | mutagenic call (Test System: Ames Salmonella typhimurium, Strain/Indicator: TA1535, Metabolic Activation: Rodent, Liver, S-9, Method: Preincubation) | mutagenic call (Test System: Ames Salmonella typhimurium, Strain/Indicator: TA1537, Metabolic Activation: None, Method: Preincubation) | mutagenic call (Test System: Ames Salmonella typhimurium, Strain/Indicator: TA1537, Metabolic Activation: Rodent, Liver, S-9, Method: Preincubation) | mutagenic call (Test System: E. coli, Strain/Indicator: WP2 uvrA, Metabolic Activation: None, Method: Preincubation) | mutagenic call (Test System: E. coli, Strain/Indicator: WP2 uvrA, Metabolic Activation: Rodent, Liver, S-9, Method: Preincubation) | mutagenic call (Test System: UDS F344 male rat hepatocytes, Strain/Indicator: THY INCORP, Method: Autoradiography) | mutagenic call (Test System: CHINESE HAMSTER V-79, Strain/Indicator: V-79 (HPRT)/6-THIOGUANINE, Metabolic Activation: NONE, Method: STANDARD PLATE) | mutagenic call (Test System: CHINESE HAMSTER V-79, Strain/Indicator: V-79 (HPRT)/6-THIOGUANINE, Metabolic Activation: RAT LIVER S-9, Method: STANDARD PLATE)
1 | CC(=NC#N)N(C)Cc1ccc(Cl)nc1 | active; positive (structural changes), 20% purity (commercial product mosetam 20 sp). | active; positive, 20% purity (commercial product mosetam 20 sp). | inactive; negative | inactive; negative | inactive; negative | inactive; negative | inactive; negative | inactive; negative | inactive; negative | inactive; negative | inactive; negative | inactive; negative | inactive; negative | inactive; negative | inactive; negative |  | 
2 | C=CC(O)CCCCC (configuration not stated) |  |  |  |  |  |  |  |  |  |  |  |  |  |  |  | inactive; negative | inactive; negative
